Measurements reported in PubChem BioAssay (NCI).
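96-well plates; 48 h exposure; 5 concentrations. Endpoints by linear interpolation between flanking doses. Not reached: highest tested concentration assigned. GI50 is the concentration that inhibits growth by half. The concentration for full growth arrest is given as TGI.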

What was measured:
Test in all cases: DTP human tumour cell line panel, 48 h; in the data active means GI50 below about 0.43 µM; inactive means the rest
[1] = tested on: UO-31 renal
[2] = tested on: HOP-92 NSCLC
[3] = tested on: SW-620 colon
[4] = tested on: NCI-H23 lung
[5] = tested on: T-47D breast
[6] = tested on: MDA-MB-435
[7] = tested on: U251 CNS
[8] = tested on: SF-268 CNS
[9] = tested on: NCI-H522 lung
[10] = tested on: SF-539 CNS
[11] = tested on: COLO 205 colon
[12] = tested on: MOLT-4 leukemia
[13] = tested on: NCI-H460 lung
[14] = tested on: 786-0 renal
[15] = tested on: RPMI-8226 leukemia
[16] = tested on: SR leukemia
[17] = tested on: SNB-19 CNS
[18] = tested on: NCI-H226 lung
[19] = tested on: A498 renal
[20] = tested on: NCI/ADR-RES ovarian
[21] = tested on: DU-145 prostate
[22] = tested on: SN12C renal
[23] = tested on: HOP-62 NSCLC
[24] = tested on: MCF7 breast
[25] = tested on: OVCAR-8 ovarian
[26] = tested on: SK-MEL-5 melanoma
[27] = tested on: UACC-62 melanoma
[28] = tested on: OVCAR-4 ovarian
[29] = tested on: OVCAR-5 ovarian
[30] = tested on: OVCAR-3 ovarian
[31] = tested on: LOX IMVI melanoma
[32] = tested on: MDA-MB-468 breast
[33] = tested on: ACHN renal
[34] = tested on: SF-295 CNS
[35] = tested on: HCT-116 colon
[36] = tested on: PC-3 prostate
[37] = tested on: K-562 leukemia
[38] = tested on: SK-MEL-2 melanoma
[39] = tested on: BT-549 breast
[40] = tested on: HT29 colon
[41] = tested on: M14 melanoma
[42] = tested on: SNB-75 CNS
[43] = tested on: CCRF-CEM leukemia
[44] = tested on: MALME-3M melanoma
[45] = tested on: MDA-MB-231 breast
[46] = tested on: KM12 colon
[47] = tested on: SK-OV-3 ovarian
[48] = tested on: TK-10 renal
[49] = tested on: SK-MEL-28 melanoma
[50] = tested on: HCC-2998 colon
[51] = tested on: HS 578T breast
[52] = tested on: UACC-257 melanoma
[53] = tested on: EKVX NSCLC
[54] = tested on: RXF 393 renal
[55] = tested on: A549 NSCLC
[56] = tested on: HCT-15 colon
[57] = tested on: CAKI-1 renal
[58] = tested on: IGROV1 ovarian
[59] = tested on: HL-60(TB) leukemia

C=CCn1c(SCC(=O)Nc2ccc(C(=O)/C=C/c3ccccc3)cc2)nnc1-c1c[nH]c2ccccc12
28.7 µM: TGI [39]
25.5 µM: TGI [3]
56.4 µM: TGI [30]
38.2 µM: TGI [11]
92.4 µM: TGI [16]
inactive: GI50 [1] 5.28 µM | GI50 [2] 6.54 µM | GI50 [3] 8.21 µM | GI50 [4] 14.4 µM | GI50 [5] 3.78 µM | GI50 [6] 3.08 µM | GI50 [7] 6.65 µM | GI50 [8] 10.9 µM | GI50 [9] 12.4 µM | GI50 [10] 11.8 µM | GI50 [11] 17.6 µM | GI50 [12] 4.37 µM | GI50 [13] 40.8 µM | GI50 [14] 20.7 µM | GI50 [15] 2.36 µM | GI50 [16] 6.09 µM | GI50 [17] 20 µM | GI50 [18] 7.06 µM | GI50 [19] 16.7 µM | GI50 [20] 32.2 µM | GI50 [21] 25 µM | GI50 [22] 27.7 µM | GI50 [23] 47.5 µM | GI50 [24] 1.86 µM | GI50 [25] 36 µM | GI50 [26] 3.91 µM | GI50 [27] 9.27 µM | GI50 [28] 7.07 µM | GI50 [29] > 100 µM | GI50 [30] 9.93 µM | GI50 [31] 2.14 µM | GI50 [32] 4.41 µM | GI50 [33] 11.6 µM | GI50 [34] 5.85 µM | GI50 [35] 1.89 µM | GI50 [36] 5.25 µM | GI50 [37] 3.37 µM | GI50 [38] 11.2 µM | GI50 [39] 13.1 µM | GI50 [40] 3.27 µM | GI50 [41] 12 µM | GI50 [42] 2.69 µM | GI50 [43] 5.58 µM | GI50 [44] 50.6 µM | GI50 [45] 11.3 µM | GI50 [46] 12.6 µM | GI50 [47] 14.7 µM | GI50 [48] > 100 µM | GI50 [49] 13.5 µM | GI50 [50] 2.69 µM | GI50 [51] 9.05 µM | GI50 [52] 20.5 µM | GI50 [53] 10.7 µM | GI50 [54] 3.93 µM | GI50 [55] 12.1 µM | GI50 [56] 2.37 µM | GI50 [57] 12.1 µM | GI50 [58] 22.5 µM | GI50 [59] 12.7 µM
24.6 µM: TGI [10]
62.3 µM: TGI [5]
37.9 µM: TGI [46]
3.99 µM: TGI [35]
23.1 µM: TGI [1]
7.56 µM: TGI [50]
12.3 µM: TGI [40]
17.9 µM: TGI [54]
4.62 µM: TGI [24]
27.9 µM: TGI [49]
51.9 µM: TGI [55]
44 µM: TGI [14]
80.3 µM: TGI [9]
19.9 µM: TGI [7]
10.6 µM: TGI [6]
42.9 µM: TGI [45]
88.7 µM: TGI [52]
5.34 µM: TGI [31]
7.39 µM: TGI [15]
> 100 µM: TGI [2] | TGI [8] | TGI [12] | TGI [13] | TGI [17] | TGI [20] | TGI [21] | TGI [22] | TGI [23] | TGI [25] | TGI [27] | TGI [28] | TGI [29] | TGI [33] | TGI [37] | TGI [42] | TGI [43] | TGI [44] | TGI [48] | TGI [51] | TGI [53] | TGI [57] | TGI [59]
37 µM: TGI [34]
32.4 µM: TGI [47]
55.4 µM: TGI [38]
17.4 µM: TGI [32]
64.4 µM: TGI [36]
30.6 µM: TGI [18]
15 µM: TGI [26]
38.5 µM: TGI [19]
29.8 µM: TGI [4]
5.53 µM: TGI [56]
37.5 µM: TGI [41]
86.3 µM: TGI [58]
